Activity calls are given as the source filed them. Rule as the data show it, for most assays here: actives have a measured EC50 and inactives only a lower limit.
Key:
[1] = target: T1, Corticotropin-releasing factor receptor 2/Corticotropin-releasing factor-binding protein (Homo sapiens, UniProt P24387+Q13324); assay: Dose Response confirmation of uHTS hits for small molecule antagonists of the CRF-binding protein and CRF-R2 receptor complex.; type: functional; settings: read-out: IC50_Mean
T1 sequence (Q13324 whole entry): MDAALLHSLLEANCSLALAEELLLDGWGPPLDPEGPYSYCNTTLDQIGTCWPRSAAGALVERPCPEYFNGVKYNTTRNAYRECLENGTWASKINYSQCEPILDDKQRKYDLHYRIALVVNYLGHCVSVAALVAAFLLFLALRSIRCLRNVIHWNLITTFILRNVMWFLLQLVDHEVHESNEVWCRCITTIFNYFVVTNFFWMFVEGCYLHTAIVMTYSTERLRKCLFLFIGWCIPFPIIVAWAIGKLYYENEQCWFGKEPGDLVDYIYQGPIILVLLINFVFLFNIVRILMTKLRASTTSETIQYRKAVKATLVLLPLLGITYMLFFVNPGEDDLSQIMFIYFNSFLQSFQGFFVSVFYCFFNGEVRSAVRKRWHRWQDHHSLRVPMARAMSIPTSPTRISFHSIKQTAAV
T1 sequence (P24387 whole entry): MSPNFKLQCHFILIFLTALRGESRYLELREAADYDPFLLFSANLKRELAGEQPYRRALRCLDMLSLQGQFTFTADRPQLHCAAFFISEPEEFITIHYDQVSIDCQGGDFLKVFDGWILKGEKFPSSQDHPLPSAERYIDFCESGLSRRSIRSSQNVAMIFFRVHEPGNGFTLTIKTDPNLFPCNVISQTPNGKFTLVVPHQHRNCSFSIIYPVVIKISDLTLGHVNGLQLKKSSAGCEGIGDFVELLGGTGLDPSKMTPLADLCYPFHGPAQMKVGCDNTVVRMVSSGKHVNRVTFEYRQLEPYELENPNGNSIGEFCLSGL

[2] = target: T1, Corticotropin-releasing factor receptor 2/Corticotropin-releasing factor-binding protein; assay: activators of CRF receptor 2 with binding protein – uHTS hits, confirmation (AID 602473); type: functional; settings: read-out: EC50_Mean
Streptokinase A = target: T2, Streptokinase A (Streptococcus pyogenes serotype M1, UniProt P10520); assay: viability-normalized secreted streptokinase activity reduction – plasminogen activation absorbance, OD405, dose response (AID 1914); type: functional, Streptococcus pyogenes M1 GAS;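 also: secreted streptokinase activity via plasminogen activation per viability signal from cell pellet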
T2 sequence (P10520 whole entry): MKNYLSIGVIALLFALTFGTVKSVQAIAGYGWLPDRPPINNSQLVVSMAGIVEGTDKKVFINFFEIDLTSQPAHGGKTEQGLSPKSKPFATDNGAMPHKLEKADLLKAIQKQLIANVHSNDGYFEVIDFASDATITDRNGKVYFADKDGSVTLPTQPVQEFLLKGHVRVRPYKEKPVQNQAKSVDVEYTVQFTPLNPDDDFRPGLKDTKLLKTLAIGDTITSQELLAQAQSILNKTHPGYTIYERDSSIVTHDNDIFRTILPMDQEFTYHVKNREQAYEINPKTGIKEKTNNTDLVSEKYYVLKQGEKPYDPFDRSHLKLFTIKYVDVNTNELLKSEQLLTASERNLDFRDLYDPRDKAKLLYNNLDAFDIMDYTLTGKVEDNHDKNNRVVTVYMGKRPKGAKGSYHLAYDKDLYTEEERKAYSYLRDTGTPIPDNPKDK

[3] = tested on: Streptococcus sp. 'group A'; assay: Streptococcus pyogenes SK(-)GAS viability under kanamycin – luminescence, BacTiterGlo, confirmation, counter-screen for streptokinase expression inhibitor project, dose response (AID 1900); type: functional, organism-based
Streptococcus = assay: GAS UMAA2166 growth inhibition – luminescence, BacTiterGlo, counter-screen for streptokinase expression inhibitor project, dose response (AID 1915); type: functional, organism-based;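 also: potency for reduction of bacterial viability or growth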
[4] = Trypanosoma cruzi growth suppression in host cells – NIH3T3 host cells, beta-gal luminescence, confirmation (AID 2044); type: functional, cell-based;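 also: intracellular parasites grown in NIH/3T3 mouse fibroblasts as host cells; luminescent beta-galactosidase reporter signal from transgenic T. cruzi replicating inside host cells; inhibitors lower the luminescence signal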
[5] = NIH3T3 cell viability loss – ATP luminescence, mouse fibroblasts, counter-screen, dose response (AID 2010); type: functional, cell-based;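 also: cells exposed to compound for about 90 hours before reading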
Cytochrome P450 2D6 = Cytochrome P450 2D6 (Homo sapiens, UniProt P10635);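 also: CYP2D6 member of a cytochrome P450 panel assay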
Cytochrome P450 2D6, sequence (P10635 whole entry): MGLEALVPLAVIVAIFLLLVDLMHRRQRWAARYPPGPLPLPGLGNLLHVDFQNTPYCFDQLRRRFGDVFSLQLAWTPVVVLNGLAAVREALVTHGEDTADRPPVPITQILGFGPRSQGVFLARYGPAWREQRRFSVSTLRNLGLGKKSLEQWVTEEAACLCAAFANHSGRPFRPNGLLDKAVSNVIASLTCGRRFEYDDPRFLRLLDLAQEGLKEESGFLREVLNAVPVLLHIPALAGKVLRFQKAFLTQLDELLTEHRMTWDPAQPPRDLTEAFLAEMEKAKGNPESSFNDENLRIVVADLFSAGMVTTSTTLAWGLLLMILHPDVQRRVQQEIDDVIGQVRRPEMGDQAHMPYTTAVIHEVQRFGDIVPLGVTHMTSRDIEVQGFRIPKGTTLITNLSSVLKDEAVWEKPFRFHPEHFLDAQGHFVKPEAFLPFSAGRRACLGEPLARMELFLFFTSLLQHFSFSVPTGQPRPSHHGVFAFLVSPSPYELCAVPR

## CC(C(=O)Nc1sccc1C(N)=O)N1C(=O)C2CC=CCC2C1=O (stereo not drawn)
[1]
  IC50: > 47.1 µM (inactive)
[2]
  EC50: > 53 µM (inactive)

## Fc1ccc(-c2cc(C(F)(F)F)nc(N3CCCCC3)n2)cc1
Streptokinase A
  EC50: 6.14 µM (active)
[3]
  EC50: 10.3 µM (active)
Streptococcus
  EC50: 13.1 µM (active)

## CC1=C(C)CC2(C(=O)NC(=S)NC2=O)C(C)C1 (stereo not drawn)
[2]
  EC50: > 53 µM (inactive)

## CC(C)(C)CC(=O)N1CCC(c2nc(O)c3nnn(Cc4c(F)cccc4Cl)c3n2)CC1
Streptokinase A
  EC50: > 150 µM (not active)
Streptococcus
  EC50: 16.7 µM (active)

## COc1ccc(CN2CCN(Cc3cccc4nonc34)CC2CCO)c(C)c1C (stereo not drawn)
[4]
  EC50: 0.403 µM (active)
[5]
  EC50: > 60 µM (not active)

## Cc1ccccc1S(=O)(=O)Cc1ccc(C(=O)NCCN2CCN(Cc3ccccc3)CC2)o1
[4]
  EC50: 1.4 µM (active)
[5]
  EC50: > 60 µM (not active)

## Cc1noc(/C=C/c2ccc(-c3ccccc3Cl)o2)c1[N+](=O)[O-]
[2]
  EC50: 5.11 µM (active)

## Cc1noc(C)c1-c1ccc2ncnc(NCc3cccnc3)c2c1
Cytochrome P450 2D6
  AC50: 12.6 µM (inconclusive)

## CCOC(=O)c1ccc(NC(S)=NN2CCN(C)CC2)cc1
[4]
  EC50: 1.08 µM (active)
[5]
  EC50: > 60 µM (inconclusive)

## Cc1ccc(-c2nn(C(C)(C)C)c3ncnc(NS(=O)(=O)c4ccc([N+](=O)[O-])cc4)c23)cc1
[4]
  EC50: 2.33 µM (active)
[5]
  EC50: > 60 µM (not active)

## CC(C)Cn1cnc2c(SCc3ccccc3)nc(N)nc21
[1]
  IC50: > 47.1 µM (inactive)
[2]
  EC50: > 53 µM (inactive)

## COc1ccc(O)c(C(=O)c2cc(C#N)c(=O)n(-c3c(C)n(C)n(-c4ccccc4)c3=O)c2)c1
[2]
  EC50: 6.39 µM (active)

## O=C(Nc1cccc2ncccc12)c1ccc2c(c1)OCCO2
[2]
  EC50: > 53 µM (inactive)

## Cc1cc(C)c2nc(NC(=O)c3ccc4c(=O)n5c(nc4c3)CCCCC5)sc2c1
[1]
  IC50: > 47.1 µM (inactive)
[2]
  EC50: > 53 µM (inactive)

## Cc1ccc(N2C(=O)NC(=O)/C(=C\c3ccoc3)C2=O)cc1
[2]
  EC50: > 53 µM (inactive)

## COc1ccc(NC(=O)N2CCCC3(CCN(S(=O)(=O)c4ccccc4)CC3)C2)cc1
Cytochrome P450 2D6
  AC50: 15.8 µM (inconclusive)

## O=C(CSc1nnc(NC(=O)c2ccccc2)s1)NCC1CCCO1 (stereo not drawn)
Streptokinase A
  EC50: > 150 µM (not active)
[3]
  EC50: > 150 µM (not active)
Streptococcus
  EC50: > 150 µM (not active)

## O=C(Nc1cccnc1)c1ccc(-c2ccc(Cl)cc2)o1
[1]
  IC50: > 47.1 µM (inactive)
[2]
  EC50: > 53 µM (inactive)

## Cc1cc(NS(=O)(=O)c2c(C(=O)N3CCOCC3)c(C)n(C)c2C)ccc1Br
[1]
  IC50: > 47.1 µM (inactive)
[2]
  EC50: > 53 µM (inactive)

## CN(C)CCCN(C(=O)c1cc2ccccc2oc1=O)c1nc2c(F)cccc2s1
[4]
  EC50: 0.118 µM (active)
[5]
  EC50: > 60 µM (not active)

## CCOC(=O)Cn1c(CN(Cc2ccccc2)Cc2ccccc2)nc2c1c(=O)[nH]c(=O)n2C
Cytochrome P450 2D6
  AC50: 31.6 µM (inconclusive)

## CN1CCc2cc3c(cc2[C@@H]1[C@@H]1C(=O)Oc2c1ccc1c2OCO1)OCO3
Cytochrome P450 2D6
  AC50: 39.8 µM (inconclusive)

## O=C(c1cnccn1)N1CCC2(CCCN(c3ncccn3)C2)CC1
Cytochrome P450 2D6
  AC50: 15.8 µM (inconclusive)

## CS(=O)(=O)N1CCC2(CC1)CN(Cc1ccccc1)C2
Cytochrome P450 2D6
  AC50: 15.8 µM (inconclusive)

## CCOc1ccc(NS(=O)(=O)c2ccc(NC(=O)[C@@H]3CCCC[C@@H]3C(=O)O)cc2)cc1
[2]
  EC50: > 53 µM (inactive)

## CC(C)Oc1cccc(C(=O)C2CCCN(Cc3cnc(N4CCOCC4)s3)C2)c1 (stereo not drawn)
[4]
  EC50: 0.146 µM (active)
[5]
  EC50: > 30 µM (not active)

## N#Cc1ccc(CSc2nnc(-c3ccncc3)n2CCc2ccccc2)cc1
[4]
  EC50: 0.772 µM (active)
[5]
  EC50: > 60 µM (not active)

## Cc1c(C(=O)Nc2ccc(S(=O)(=O)N(C)C3CCN(C)CC3)cc2)oc2c(Cl)cccc12
[4]
  EC50: 0.85 µM (active)
[5]
  EC50: > 30 µM (not active)

## Cc1ccccc1NC(=O)C(C)c1cccc(C(=O)c2ccccc2)c1 (stereo not drawn)
Cytochrome P450 2D6
  AC50: 25.1 µM (inconclusive)

## C/C=C/c1ccc(OCC(O)CN(C)Cc2ccc(SC)cc2)c(OC)c1 (stereo not drawn)
[4]
  EC50: 0.388 µM (active)
[5]
  EC50: > 60 µM (not active)

## CCCC[C@@H]1C[C@H]1C(NC(=O)c1ccco1)c1ccc(Cl)cc1 (stereo partly drawn)
Cytochrome P450 2D6
  AC50: 39.8 µM (inconclusive)

## C[C@H](C(=O)O)c1cccc(Oc2ccccc2)c1
Cytochrome P450 2D6
  AC50: 12.6 µM (inconclusive)

## CCOc1ccc(N=C(N)Nc2nc(C)cc(C)n2)cc1
[2]
  EC50: 6.95 µM (active)

## CCN(CC)CCn1c(SCC(=O)NCCC2=CCCCC2)nc2c(sc3ccccc32)c1=O
[4]
  EC50: 2 µM (active)
[5]
  EC50: 15.7 µM (active)

## COc1cccc(N/C(SCc2cccc([N+](=O)[O-])c2)=C(/C#N)C(N)=O)c1
[4]
  EC50: 4.17 µM (active)
[5]
  EC50: > 60 µM (not active)

## c1ccc(C(c2nnnn2C2CCCC2)N2CCN(c3nc4ccccc4s3)CC2)cc1 (stereo not drawn)
[4]
  EC50: 1.95 µM (active)
[5]
  EC50: > 60 µM (not active)

## COc1ccc(C2CC3=Nc4ncnn4C(c4ccccc4C)C3=C(O)C2)c(OC)c1 (stereo not drawn)
[4]
  EC50: 1.56 µM (active)
[5]
  EC50: > 60 µM (not active)

## O=C(NCC1COc2ccccc2O1)c1ccc(NC(=O)C(c2ccccc2)c2ccccc2)cc1 (stereo not drawn)
[4]
  EC50: 1.88 µM (active)
[5]
  EC50: > 60 µM (inconclusive)

## CN(CC[C@@H](Oc1ccc(-c2ccccc2)cc1)c1ccc(F)cc1)CC(=O)O
Cytochrome P450 2D6
  AC50: 31.6 µM (inconclusive)

## CNc1c([N+](=O)[O-])nn(-c2ccc3c(c2)OCCO3)[n+]1[O-]
[4]
  EC50: 0.68 µM (active)
[5]
  EC50: 20.1 µM (active)

## Cc1cccc(N2CCN(C(=O)c3ccc(Cl)c(S(=O)(=O)N4CCc5ccccc5C4)c3)CC2)c1C
[4]
  EC50: 1.13 µM (active)
[5]
  EC50: > 60 µM (inconclusive)

## Cc1ccc(N/N=C/C=C/c2ccco2)cc1
[4]
  EC50: 3.31 µM (active)
[5]
  EC50: > 30 µM (not active)

## Cc1cccc(Nc2nc(N)nc(CN3CCN(c4ccc(F)cc4)CC3)n2)c1
Streptokinase A
  EC50: > 150 µM (not active)
[3]
  EC50: 12.1 µM (active)
Streptococcus
  EC50: 95.3 µM (active)

## COc1cccc(-c2nc(NCc3ccccc3)c3ccccc3n2)c1
Cytochrome P450 2D6
  AC50: 20 µM (inconclusive)

## Cc1cc(S(=O)(=O)NCc2ccccc2)ccc1OCC(=O)NCC1CCCO1 (stereo not drawn)
[2]
  EC50: > 53 µM (inactive)

## CC1CCCN(CCOCCSc2ccccc2)C1 (stereo not drawn)
[4]
  EC50: 0.297 µM (active)
[5]
  EC50: > 60 µM (not active)

## O=C(CNc1cccc2ccccc12)N/N=C/c1ccc[nH]1
Streptokinase A
  EC50: > 150 µM (not active)
[3]
  EC50: > 150 µM (not active)
Streptococcus
  EC50: > 150 µM (not active)

## CSc1ccccc1C(=O)C1CCCN(Cc2cnn(-c3ccccc3)c2)C1 (stereo not drawn)
[4]
  EC50: 0.245 µM (active)
[5]
  EC50: > 60 µM (not active)

## O=C(Nc1nc(-c2ccccc2)cs1)c1cccc([N+](=O)[O-])c1
[4]
  EC50: 2.4 µM (active)
[5]
  EC50: > 60 µM (not active)

## COc1ccc(/C=C(/C(=O)c2ccc(Cl)cc2Cl)n2cncn2)cc1
[4]
  EC50: 0.423 µM (active)
[5]
  EC50: 31.4 µM (active)

## Cc1cc(S(=O)(=O)NCCC2=CCCCC2)ccc1Br
Streptokinase A
  EC50: 10.4 µM (active)
[3]
  EC50: 9.73 µM (active)
Streptococcus
  EC50: > 150 µM (not active)

## COc1ccc(/C=c2\s/c(=C/C(=O)c3ccc(C)cc3)[nH]c2=O)cc1OC
Streptokinase A
  EC50: > 150 µM (not active)
[3]
  EC50: 13.2 µM (active)
[2]
  EC50: 13.4 µM (active)
Streptococcus
  EC50: > 150 µM (not active)

## Cc1cc(NC(=O)CCCn2cnc([N+](=O)[O-])n2)no1
[4]
  EC50: 0.797 µM (active)
[5]
  EC50: > 60 µM (inconclusive)

## Cc1ccc(NC(=O)c2c(C(F)(F)F)nn(C)c2SCc2ccc(Cl)cc2)cc1C
[4]
  EC50: 2.84 µM (active)
[5]
  EC50: > 60 µM (not active)

## Cn1c2ccccc2c(=O)c2cc(C#Cc3ccc(N)cc3)ccc21
[3]
  EC50: 0.713 µM (active)
Streptococcus
  EC50: 3.34 µM (active)

Reference: ChEMBL document CHEMBL1201862, “PubChem BioAssay data set” (2004)
